Where two headings read alike, the source gives them in different places. One block for each compound: values may come before it.
Key:
[1] = system: Myzus persicae resistant to organophosphorus pesticide and carbamate agent; assay: Test to Myzus persicae resistant to organophosphorus pesticide and carbamate agent (egg plant seedlings); assay type: in vivo; conditions: 168 h, effective ingredient concentration 100 ppm, seven days after spraying, read-out: pesticide effect, insect mortality
Description: Test to Myzus persicae resistant to organophosphorus pesticide and carbamate agent
(§1) Solvent: dimethylformamide 3 parts by weight Emulsifier: polyoxyethylene alkyl phenyl ether 1 part by weight
(§2) In order to prepare preparations of suitable active compounds, 1 part by weight of each of the active compounds was blended with the above amount of the solvent containing the above amount of the emulsifier, and the resulting mixture was diluted to a prescribed concentration with water.
On egg plant seedlings planted in a plastic pot of a diameter of 6 cm, 30 bred Myzus persicae resistant to organophosphorus pesticide and carbamate agent per one seedling were inoculated. After 1 day elapsed since the inoculation, a sufficient amount of the solution diluted with water and having a prescribed concentration of the active compound was sprayed. After the spraying, the pot was allowed to stand in a greenhouse of 28° C. After seven days elapsed since the spraying, insect mortality was calculated. The test was carried out twice.

[2] = system: Spodoptera litura third instar larvae; assay: Test to larva of Spodoptera litura (sweet potato leaf dip); assay type: in vivo; conditions: foliar, 168 h, read-out: insect mortality
Description: Test to Larva of Spodoptera litura
as §1, §2
Leaves of sweet potato were immersed in the tested liquid medication of a prescribed concentration diluted with water. After air drying of the liquid medication, the leaves were put into a petri dish of a diameter of 9 cm, and 10 Spodoptera litura third instar larvae were released in the petri dish, and the petri dish was placed in a constant temperature room of 25° C. Two days later and four days later, leaves of sweet potato were added. Seven days later, the number of dead insects was examined, and insect mortality was calculated.
In the present test, results of 2 petri dishes for each compound were averaged.

Myzus persicae = assay: Test to Myzus persicae (Brassica pekinensis leaf disc spray); assay type: in vivo; conditions: foliar, read-out: pesticide effect, insect mortality
Description: Solvent: acetone 78.0 parts by weight and dimethylformamide 1.5 parts by weight Emulsifier: alkyl aryl polyglycol ether 0.5 parts by weight
as §2
On a leaf disc of Brassica pekinensis, Myzus persicae including all growth stage was inoculated. The solution diluted with water and having a prescribed concentration of the active compound was sprayed by a spray gun. Insect mortality was calculated after prescribed days elapsed. 100% insect mortality means that all the individuals died, and 0% insect mortality means that all the individuals were alive.

[3] = logP(neutral) by reverse phase chromatography, potassium dihydrogen phosphate / acetonitrile; assay type: physicochemical
Lucilia cuprina = assay: Test to Lucilia cuprina (larvae on horse minced meat); assay type: in vivo; conditions: effective ingredient concentration 100 ppm, read-out: insecticide activity (mortality)
Description: (§3) Solvent: dimethylsulfoxide
(§4) In order to prepare preparations of suitable active compounds, 10 mg of each of the active compounds was dissolved into 0.5 ml of the above solvent, and the resulting mixture was diluted to a prescribed concentration with water.
About 20 to 30 larvae of Lucilia cuprina were put into the test tube in which 1 cm^3 of horse minced meat and 0.5 ml of the aqueous solution of the compound prepared in the above were put. After a fixed time passed, the mortality of the Lucilia cuprina was obtained. 100% mortality means that all the individuals were dead, and 0% mortality means that all the individuals were alive.

Musca domestica = assay: Test to Musca domestica (adults, sugar sponge); assay type: in vivo; conditions: effective ingredient concentration 100 ppm, read-out: insecticide activity (mortality)
Description: as §3, §4
As a preparative stage of the test, a fixed size of sponge was soaked in a mixture of sugar and the compound aqueous solution prepared in the above, and was placed in a test container. Ten adults of Musca domestica were put into the container, and the container was closed with a cap having ventilation holes. After a fixed time passed, a mortality rate of Musca domestica was acquired. 100% mortality means that all the individuals were dead, and 0% mortality means that all the individuals were alive.

[4] = 0.0025M potassium dihydrogen phosphate aqueous solution / acetonitrile, linear gradient 10-95% acetonitrile
[5] = Spodoptera litura third instar larvae, active ingredient concentration 20 ppm, seven days later, 25° C.
[6] = potassium dihydrogen phosphate / acetonitrile

SMILES: CSC[C@H](C)NC(=O)c1c(C#N)cccc1C(=O)Nc1ccc(Cn2nc(C(F)(F)F)cc2C(F)(F)F)cc1C [13-172, N^1-(4-{[3,5-bis(trifluoromethyl)-1H-pyrazol-1-yl]methyl}-2-methylphenyl)-3-cyano-N^2-[(1S)-1-methyl-2-(methylthio)ethyl]-1,2-benzenedicarboxamide]
mortality at 100 ppm [1]: 100% | mortality at 20 ppm ([2]; Spodoptera litura): 100% | mortality at 100 g/ha (Myzus persicae): ≥ 70%

logP (neutral) [3, 4]: logP (neutral) 3.74
SMILES: CSC[C@H](C)NC(=O)c1c(C(=O)Nc2ccc(Cn3nc(C(F)(F)F)cc3C(F)(F)F)nc2C)ccc(F)c1Br [9-10]

SMILES: CSC[C@H](C)NC(=O)c1c(Br)cccc1C(=O)Nc1ccc(Cn2cc(C(F)(F)C(F)(F)F)c(C(F)(F)C(F)(F)F)n2)cc1C [13-132, N^1-(4-{[3,4-bis(pentafluoroethyl)-1H-pyrazol-1-yl]methyl}-2-methylphenyl)-3-bromo-N^2-[(1S)-1-methyl-2-(methylthio)ethyl]-1,2-benzenedicarboxamide]
mortality at 20 ppm [2, 5]: 100% | mortality at 100 ppm (Lucilia cuprina): ≥ 80% | mortality at 100 ppm (Musca domestica): ≥ 70%

logP (neutral) [3, 6]: 2.16
SMILES: CSC[C@H](C)NC(=O)c1c(Cl)cccc1C(=O)Nc1ccc(Cn2nc(C(F)(F)F)n(C)c2=O)nc1C [14-320]

SMILES: CSC[C@H](C)NC(=O)c1c(C(=O)Nc2ccc(Cn3nc(C(F)(F)F)cc3C(F)(F)F)nc2C)cccc1S(=O)(=O)N(C)C [13-287]
logP (neutral) [3, 6]: 3.42

SMILES: CCSC[C@H](C)NC(=O)c1c(SC)cccc1C(=O)Nc1ccc(Cn2nc(C(F)(F)F)cc2C(F)(F)F)cc1C [13-291, N^1-(4-{[3,5-bis(trifluoromethyl)-1H-pyrazol-1-yl]methyl}-2-methylphenyl)-N^2-[(1S)-1-methyl-2-(ethylthio)ethyl]-3-methylthio-1,2-benzenedicarboxamide]
mortality at 20 ppm [2, 5]: 100% | mortality at 100 g/ha (Myzus persicae; spraying amount 100 g/ha): ≥ 70%

SMILES: Cc1nc(Cn2cc(C(F)(F)C(F)(F)F)c(C(F)(F)C(F)(F)F)n2)ccc1NC(=O)c1cccc(I)c1C(=O)NC(C)C[S+](C)[O-] (mixture of isomers) [13-159]
logP (neutral) [3, 6]: 3.08

logP (neutral) [3, 6]: 3.10
SMILES: Cc1nc(Cn2nc(C(F)(F)F)cc2C(F)(F)F)ccc1NC(=O)c1cc(Cl)cc(Cl)c1C(=O)N[C@@H](C)CS(C)(=O)=O [10-3]

SMILES: Cc1cc(Cn2cc(C(F)(F)C(F)(F)F)c(C(F)(F)C(F)(F)F)n2)ccc1NC(=O)c1cccc(Br)c1C(=O)N[C@@H](C)C[S+](C)[O-] (stereo partly drawn) [13-137, N^1-(4-{[3,4-bis(pentafluoroethyl)-1H-pyrazol-1-yl]methyl}-2-methylphenyl)-3-bromo-N^2-[(1S)-1-methyl-2-(methylsulfinyl)ethyl]-1,2-benzenedicarboxamide]
mortality at 20 ppm [2, 5]: 100% | mortality at 100 ppm (Lucilia cuprina): ≥ 80% | mortality at 100 ppm (Musca domestica): ≥ 70%

logP (neutral) [3, 4]: logP (neutral) 3.13
SMILES: Cc1cc(Cn2nc(C(F)(F)C(F)(F)F)nc2C(F)(F)F)ccc1NC(=O)c1ccc(C(F)(F)F)c(Cl)c1C(=O)N[C@@H](C)C[S+](C)[O-] (stereo partly drawn) [9-24]

SMILES: CSC[C@H](C)NC(=O)c1c(Cl)cccc1C(=O)Nc1ccc(CN2N=C(C(F)(F)C(F)(F)F)NC2C(F)(F)F)cc1C (stereo partly drawn) [16-4, 3-chloro-N^1-(2-methyl-4-{[3-(pentafluoroethyl)-5-(trifluoromethyl)-4,5-dihydro-1H-1,2,4-triazol-1-yl]methyl}phenyl)-N^2-[(1S)-1-methyl-2-(methylthio)ethyl]-1,2-benzenedicarboxamide]
mortality at 100 ppm [1]: 100% | mortality at 20 ppm ([2]; Spodoptera litura): 100%

SMILES: CSC[C@H](C)NC(=O)c1c(Br)cccc1C(=O)Nc1ccc(Cn2nc(C(F)(F)C(F)(F)C(F)(F)F)cc2C(F)(F)F)nc1C [13-128]
logP (neutral) [3, 6]: 4.42

SMILES: CSC[C@H](C)NC(=O)c1c(OC(F)(F)F)cccc1C(=O)Nc1ccc(Cn2nc(C(F)(F)F)cc2C(F)(F)F)cc1C [13-13, N^1-(4-{[3,5-bis(trifluoromethyl)-1H-pyrazol-1-yl]methyl}-2-methylphenyl)-N^2-[(1S)-1-methyl-2-(methylthio)ethyl]-3-(trifluoromethoxy)-1,2-benzenedicarboxamide]
mortality at 100 ppm [1]: 100% | mortality at 20 ppm ([2]; Spodoptera litura): 100% | mortality at 100 g/ha (Myzus persicae): ≥ 70%

logP (neutral) [3, 6]: logP (neutral) 2.90
SMILES: Cc1cc(Cn2nc(C(F)(F)C(F)(F)F)nc2C(F)(F)F)ccc1NC(=O)c1c(Cl)ccc(Cl)c1C(=O)N[C@@H](C)C[S+](C)[O-] (stereo partly drawn) [11-28]

From patent US20110184188A1, “Insecticidal Benzenedicarboxamide Derivative” (priority 2008, published 2011)
